Source: patent US20120202690A1, “HERBICIDAL COMPOUNDS” (SYNGENTA LIMITED, priority 2009, published 2012)

Experiments:
[1] = tested on: Alopecurus myosuroides (ALOMY); assay: Post-emergence biological efficacy, glasshouse, 500 or 1000 g/ha, evaluated after 13 days (100=total damage to plant; 0=no damage to plant); type: in vivo; conditions: Alopecurus myosuroides, 312 h, rate 1,000 g/ha, read-out: Percentage damage caused to weed species, post-emergence, ALOMY
Method in brief: (§1)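 Sow seeds in standard potting soil. Treat after emergence. Keep treated plants in the glasshouse at 24° C. by day and 16° C. by night, with a 14-hour photoperiod, 65% humidity and two waterings daily.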

[2] = tested on: Echinochloa crusgaffi (ECHCG); assay: as above; type: in vivo; conditions: Echinochloa, 312 h, rate 1,000 g/ha, read-out: Percentage damage caused to weed species, post-emergence, ECHCG
Method in brief: as §1

[3] = tested on: Solanum nigrum (SOLNI); assay: as above; type: in vivo; conditions: Solanum nigrum, 312 h, rate 1,000 g/ha, read-out: Percentage damage caused to weed species, post-emergence, SOLNI
Method in brief: as §1

[4] = tested on: Amaranthus retroflexus (AMARE); assay: as above; type: in vivo; conditions: Amaranthus retroflexus, 312 h, rate 1,000 g/ha, read-out: Percentage damage caused to weed species, post-emergence, AMARE
Method in brief: as §1

[5] = tested on: Setaria faberi (SETFA); assay: as above; type: in vivo; conditions: Setaria faberi, 312 h, rate 1,000 g/ha, read-out: Percentage damage caused to weed species, post-emergence, SETFA
Method in brief: as §1

[6] = tested on: Ipomoea hederaceae (IPOHE); assay: as above; type: in vivo; conditions: Ipomoea, 312 h, rate 1,000 g/ha, read-out: Percentage damage caused to weed species, post-emergence, IPOHE
Method in brief: as §1

[7] = tested on: Alopecurus myosuroides (ALOMY); assay: Pre-emergence biological efficacy, glasshouse, 1000 g/ha, evaluated after 13 days (100=total damage to plant; 0=no damage to plant); type: in vivo; conditions: Alopecurus myosuroides, 312 h, rate 1,000 g/ha, read-out: Percentage damage caused to weed species, pre-emergence, ALOMY
Method in brief: (§2)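 Sowing: standard soil, pots. Growth: glasshouse, 24/16° C. day/night, 14 hours light, 65% humidity. Watering: twice daily.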

[8] = tested on: Echinochloa crus-galli (ECHCG); assay: as above; type: in vivo; conditions: Echinochloa crus-galli, 312 h, rate 1,000 g/ha, read-out: Percentage damage caused to weed species, pre-emergence, ECHCG
Method in brief: as §2

[9] = tested on: Solanum nigrum (SOLNI); assay: as above; type: in vivo; conditions: Solanum nigrum, 312 h, rate 1,000 g/ha, read-out: Percentage damage caused to weed species, pre-emergence, SOLNI
Method in brief: as §2

[10] = tested on: Amaranthus retroflexus (AMARE); assay: as above; type: in vivo; conditions: Amaranthus retroflexus, 312 h, rate 1,000 g/ha, read-out: Percentage damage caused to weed species, pre-emergence, AMARE
Method in brief: as §2

[11] = tested on: Setaria faberi (SETFA); assay: as above; type: in vivo; conditions: Setaria faberi, 312 h, rate 1,000 g/ha, read-out: Percentage damage caused to weed species, pre-emergence, SETFA
Method in brief: as §2

[12] = tested on: Ipomoea hederaceae (IPOHE); assay: as above; type: in vivo; conditions: Ipomoea, 312 h, rate 1,000 g/ha, read-out: Percentage damage caused to weed species, pre-emergence, IPOHE
Method in brief: as §2

## COC(=O)c1nc(C2CC2)nc2c1Nc1ccccc1N2 [Compound 119-28, 2-Cyclo-propyl-4-methoxy-carbonyl-5,10-dihydro-benzo[g] pteridine]
[1]
  pest or weed control at 1000 g/ha: 0%
[2]
  pest or weed control at 1000 g/ha: 0%
[3]
  pest or weed control at 1000 g/ha: 20%
[4]
  pest or weed control at 1000 g/ha: 20%
[5]
  pest or weed control at 1000 g/ha: 0%
[6]
  pest or weed control at 1000 g/ha: 10%
other
  melting point: 217 to 219 °C
[7]
  pest or weed control at 1000 g/ha: 0%
[8]
  pest or weed control at 1000 g/ha: 0%
[9]
  pest or weed control at 1000 g/ha: 0%
[10]
  pest or weed control at 1000 g/ha: 0%
[11]
  pest or weed control at 1000 g/ha: 0%
[12]
  pest or weed control at 1000 g/ha: 0%
